Data reported in patent US12370235B2, “Synthetic, non-natural antimicrobial peptides inspired by Staphylococcus auricularis delta toxin” (University of Saskatchewan, priority 2021, dated 2025).
Where two headings read alike, the source gives them in different places. Ends that are not written are not given here.

Assays:
[1] = system: M. luteus ATCC 4698; test: MIC, broth dilution; format: cell-based, Micrococcus luteus
Outline: (§1)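 Peptides (95% purity) were serially diluted 2-fold and mixed with bacteria diluted to OD 6×10^−4 in cation-adjusted Mueller Hinton broth. Standing cultures were incubated overnight at 37° C. MIC was the lowest peptide concentration with no observed growth.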

[2] = system: S. aureus ATCC 29213; test: MIC, broth dilution; format: cell-based, Staphylococcus aureus; conditions: Table 5; STIP3 variants, highest concentration 100 μg/mL
Outline: as §1

[3] = system: S. aureus ATCC 33592 (MRSA SCCmec type III); test: MIC, broth dilution; format: cell-based, Staphylococcus aureus; conditions: Table 5; STIP3 variants, highest concentration 100 μg/mL
Outline: as §1

[4] = system: S. aureus ATCC BAA-1683 (MRSA SCCmec type IV); test: MIC, broth dilution; format: cell-based, Staphylococcus aureus; conditions: Table 5; STIP3 variants, highest concentration 100 μg/mL
Outline: as §1

[5] = system: S. aureus ATCC BAA-2094 (MRSA SCCmec type V); test: MIC, broth dilution; format: cell-based, Staphylococcus aureus; conditions: Table 5; STIP3 variants, highest concentration 100 μg/mL
Outline: as §1

[6] = system: S. aureus ATCC BAA-2313 (MRSA SCCmec type XI); test: MIC, broth dilution; format: cell-based, Staphylococcus aureus; conditions: Table 5; STIP3 variants, highest concentration 100 μg/mL
Outline: as §1

[7] = system: S. aureus ATCC BAA-41 (MRSA SCCmec type II); test: MIC, broth dilution; format: cell-based, Staphylococcus aureus; conditions: Table 5; STIP3 variants, highest concentration 100 μg/mL
Outline: as §1

[8] = system: S. aureus ATCC BAA-42 (MRSA SCCmec type VI); test: MIC, broth dilution; format: cell-based, Staphylococcus aureus; conditions: Table 5; STIP3 variants, highest concentration 100 μg/mL
Outline: as §1

[9] = system: S. aureus ATCC BAA-44 (MRSA SCCmec type I); test: MIC, broth dilution; format: cell-based, Staphylococcus aureus; conditions: Table 5; STIP3 variants, highest concentration 100 μg/mL
Outline: as §1

[10] = system: S. aureus bovid isolate (RDM-1); test: MIC, broth dilution; format: cell-based, Staphylococcus aureus; conditions: clinical isolate
Outline: as §1

[11] = system: S. pseudintermedius canine isolate MRSP24; test: MIC, broth dilution; format: cell-based, Staphylococcus pseudintermedius
Protocol: (§2) MIC determination. MICs were measured using peptides with 95% purity. For bacterial studies, cation-adjusted Mueller Hinton (MH) broth was used as the growth medium whereas Yeast Peptone Dextrose (YPD; 10 g/L yeast extract, 20 g/L peptone, 20 g/L dextrose) was used for Candida spp. and other yeast. Microorganisms were diluted to an optical density of […] in MH or YPD broth and a 180 μl volume was mixed with 20 μl of peptide arrayed as a 2-fold dilution series in a flat-bottom 96-well microtitre plate. A control was performed using 20 μl of sterile water. Plates were incubated as standing cultures overnight at 37° C.
(§3) Determination of minimum inhibitory concentrations. The MICs were measured for bioactive peptides identified from the initial screen. For bacterial studies, cation-adjusted Mueller Hinton (MH) broth was used as the growth medium whereas YPD was used for C. albicans. Bacterial cultures were diluted to a OD value of 6×10^−4 in MH broth and a 180 μl volume was mixed with 20 μl of peptide arrayed as 2-fold dilution series in a 96-well plate. For the positive control, 20 μl of sterile water was used. Plates were incubated as standing cultures overnight at 37° C. The lowest peptide concentration that resulted no observed microbial growth after an overnight treatment was defined as the MIC.

[12] = system: S. pseudintermedius human isolate SPC002 (MSSP); test: MIC, broth dilution; format: cell-based, Staphylococcus pseudintermedius
Protocol: as §2, §3

[13] = system: S. pseudintermedius human isolate SPC020 (MSSR); test: MIC, broth dilution; format: cell-based, Staphylococcus pseudintermedius
Protocol: as §2, §3

[14] = system: Enterococcus faecalis ATCC 2912; test: MIC, broth dilution; format: cell-based
Protocol: as §2, §3

[15] = system: Klebsiella pneumoniae; test: MIC, broth dilution; format: cell-based
Protocol: as §2, §3

[16] = system: Mannheimia haemolytica (clinical, disease-causing isolate); test: MIC, broth dilution; format: cell-based; conditions: Table 7
Protocol: as §2, §3

[17] = system: Mycoplasma bovis; test: MIC, broth dilution; format: cell-based
Protocol: as §2, §3

[18] = system: Pasteurella multocida; test: MIC, broth dilution; format: cell-based
Protocol: as §2, §3

[19] = system: Pseudomonas aeruginosa ATCC 27853; test: MIC, broth dilution; format: cell-based
Protocol: as §2, §3

[20] = system: S. auricularis; test: MIC, broth dilution; format: cell-based; conditions: isolate from a healthy dairy cow
Protocol: as §2, §3

[21] = system: S. epidermidis; test: MIC, broth dilution; format: cell-based; conditions: isolate from a healthy dairy cow
Protocol: as §2, §3

[22] = system: S. equorum; test: MIC, broth dilution; format: cell-based; conditions: isolate from a healthy dairy cow
Protocol: as §2, §3

[23] = system: S. scuri; test: MIC, broth dilution; format: cell-based; conditions: isolate from a healthy dairy cow
Protocol: as §2, §3

[24] = system: Streptococcus agalactiae; test: MIC, broth dilution; format: cell-based; conditions: clinical isolate
Protocol: as §2, §3

[25] = system: Streptococcus canis; test: MIC, broth dilution; format: cell-based; conditions: clinical isolate
Protocol: as §2, §3

[26] = system: Streptococcus dysagalactiae; test: MIC, broth dilution; format: cell-based; conditions: clinical isolate
Protocol: as §2, §3

[27] = system: Streptococcus equi; test: MIC, broth dilution; format: cell-based; conditions: clinical isolate
Protocol: as §2, §3

[28] = system: Streptococcus zooepidermicus; test: MIC, broth dilution; format: cell-based; conditions: clinical isolate
Protocol: as §2, §3

[29] = system: C. albicans MYA-2876; test: MIC, YPD broth; format: cell-based, Candida albicans; conditions: Table 8
Outline: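 Yeast cells were diluted in YPD broth, and 180 μl aliquots were mixed with 20 μl of peptide from 2-fold serial dilutions in flat-bottom 96-well microtitre plates. Wells receiving 20 μl sterile water served as controls. After standing incubation overnight at 37° C, the MIC was taken as the lowest peptide concentration with no visible microbial growth.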

[30] = system: C. albicans Y537; test: MIC, YPD broth; format: cell-based, Candida albicans; conditions: Table 8
[31] = system: Candida duobushaemulonii AR 391; test: MIC, YPD broth, CDC and FDA AR Candida isolate panel; format: cell-based; conditions: Table 9 top part: titrations from 1.56 to 100 μg/mL
Outline: (§4)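 Medium: 10 g/L yeast extract, 20 g/L peptone, 20 g/L dextrose. Inoculum OD […]; peptides 95% purity, 2-fold series; overnight 37° C, standing.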

[32] = system: Candida duobushaemulonii AR 392; test: as above; format: cell-based; conditions: Table 9 top part: titrations from 1.56 to 100 μg/mL
Outline: as §4

[33] = system: Candida duobushaemulonii AR 394; test: as above; format: cell-based; conditions: Table 9 top part: titrations from 1.56 to 100 μg/mL
Outline: as §4

[34] = system: Candida haemulonii AR 393; test: as above; format: cell-based; conditions: Table 9 top part: titrations from 1.56 to 100 μg/mL
Outline: as §4

[35] = system: Candida lusitaniae AR 398; test: as above; format: cell-based; conditions: Table 9 top part: titrations from 1.56 to 100 μg/mL
Outline: as §4

[36] = system: Kodamae ohmeri AR 396; test: as above; format: cell-based; conditions: Table 9 top part: titrations from 1.56 to 100 μg/mL
Outline: as §4

[37] = system: Saccharomyces cerevisiae AR 399; test: as above; format: cell-based; conditions: Table 9 top part: titrations from 1.56 to 100 μg/mL
Outline: as §4

Substance: TVGGLVKWILKTVKKFA-NH2 [STIP3-29, TVGGLVKWILKTVKKFA-NH2]
- MIC M. luteus [1]: 1.56 µg/mL
- MIC M. luteus ([1]; molar): 0.85 µM
- fold improvement of activity (MIC) ([1]; relative to STIP3-1, M. luteus): 8 fold
- MIC S. aureus ATCC 29213 [2]: 12.5 µg/mL
- MIC S. aureus ATCC 33592 (III) [3]: 6.25 µg/mL
- MIC S. aureus ATCC BAA 1683 (IV) [4]: 6.25 µg/mL
- MIC S. aureus ATCC BAA 2094 (V) [5]: 6.25 µg/mL
- MIC S. aureus ATCC BAA 2313 (XI) [6]: 6.25 µg/mL
- MIC S. aureus ATCC BAA 41 (II) [7]: 6.25 µg/mL
- MIC S. aureus ATCC BAA 42 (VI) [8]: 6.25 µg/mL
- MIC S. aureus ATCC BAA 44 (I) [9]: 6.25 µg/mL
- MIC [10]: 6.25 µg/mL
- MIC [11]: 3.13 µg/mL
- MIC [12]: 3.13 µg/mL
- MIC [13]: 3.13 µg/mL
- MIC [14]: 12.5 µg/mL
- MIC (μg/ml) [15]: > (> indicates no inhibition up to 50 μg/ml)
- MIC [16]: 6.25 µg/mL
- MIC (μg/ml) [17]: > (> indicates no inhibition up to 50 μg/ml)
- MIC (μg/ml) [18]: > (> indicates no inhibition up to 50 μg/ml)
- MIC (μg/ml) [19]: > (> indicates no inhibition up to 50 μg/ml)
- MIC [20]: 1.56 µg/mL
- MIC [21]: 3.13 µg/mL
- MIC [22]: 3.13 µg/mL
- MIC [23]: 3.13 µg/mL
- MIC [24]: 3.13 µg/mL
- MIC [25]: 6.25 µg/mL
- MIC [26]: 3.13 µg/mL
- MIC [27]: 3.13 µg/mL
- MIC [28]: 3.13 µg/mL
- MIC C. albicans MYA-2876 [29]: 12.5 µg/mL
- MIC C. albicans Y537 [30]: 25 µg/mL
- MIC (μg/mL) Candida duobushaemulonii AR 391 [31]: 25 µg/mL
- MIC (μg/mL) Candida duobushaemulonii AR 392 [32]: 50 µg/mL
- MIC (μg/mL) Candida duobushaemulonii AR 394 [33]: 100 µg/mL
- MIC (μg/mL) Candida haemulonii AR 393 [34]: 200 µg/mL
- MIC (μg/mL) Candida lusitaniae AR 398 [35]: 25 µg/mL
- MIC (μg/mL) Kodamae ohmeri AR 396 [36]: 50 µg/mL
- MIC (μg/mL) Saccharomyces cerevisiae AR 399 [37]: 50 µg/mL
